The source of these data is US11197914B2, “GLP-1R/GCGR dual target agonist polypeptide for treatment of fatty liver diseases, hyperlipemia and arteriosclerosis” (Shenzhen Turier Biotech Co., Ltd., priority 2016, dated 2021).

*1 amine or outer side, *2 acyl side, *3 side chain or, on linkers, in order; H or OH if unused. Primed or numbered codes have the meaning given here. Where no end group is shown, it is not given here. Side-chain parts run from the residue outwards. [ ]: non-standard residue; d: D form. The star is where a group is joined. C18 diacid = O=C(O)CCCCCCCCCCCCCCCCC(=O)*; C16 diacid = O=C(O)CCCCCCCCCCCCCCC(=O)*; γGlu = O=C(O)[C@H](CCC(=O)[*:2])N[*:1]; Stearoyl = CCCCCCCCCCCCCCCCCC(=O)*; Palmitoyl = CCCCCCCCCCCCCCCC(=O)*; PEG2′ = not defined here; Aib = CC(C)(N)C(=O)O

This experiment has as its system Hepatic stellate cell strain LX-2. As to the kind of experiment: In vitro inhibition of hepatic fibrosis: expression of LX-2 cell activation marker α-SMA (Western Blot, α-SMA/β-actin). The settings on record: LX-2 cells; for Relative expression of α-SMA (α-SMA/β-actin, %): 48 hours, negative control = 100%; for Effect on expression of α-SMA (in words): 1 μM and 5 μM. Format: cell-based, human. The procedure:
Hepatic stellate cell strain LX-2 was selected to study and observe the effect of different doses of test substances on the expression of LX-2 cell activation marker […]. Hepatic stellate cell LX-2 was laid on 35 mm cell culture plate, cultured with DMEM (high glucose)+10% FBS+1% double-antibody culture medium (Thermo Fisher), placed overnight when the cells grew to 70% convergence at 37° C. and under the condition of 5% CO2, and treated with the above compounds 1-37 (dissolved in PBS) for 48 hours the next day morning to extract cell protein, carry out Western Blot, and take β-actin as internal reference and analyze the expression quantities of α-SMA and β-actin by a gray level of Image J 1.50i. PBS with the same volume as that in experimental group was added in negative control. […] The integrating gray level of α-SMA/β-actin in the negative control group was 100% to analyze the in vitro inhibition activity of hepatic fibrosis of tested polypeptide.
Background: Immunoblotting shows a protein as a band on a membrane.

As for “His-Aib-Gln-Gly-Thr-Phe-Thr-Ser-Asp-Lys(PEG2-PEG2-γGlu-CO(CH2)14CO2H)-Ser-Lys-Tyr-Leu-Asp-Glu-Arg-Arg-Ala-Gln-Asp-Phe-Val-Gln-Trp-Leu-Leu-Asp-Gly-Gly-Pro-Ser-Ser-Gly-Ala-Pro-Pro-Pro-Ser-NH2 (H[Aib]QGTFTSDK([PEG2′-PEG2′-γGlu-C16 diacid])SKYLDERRAQDFVQWLLDGGPSSGAPPPS-NH2) [Compound 13]”, for the setting “1 μM”, the “Relative expression of α-SMA (α-SMA/β-actin, %)” value was determined as 97.93%. In the case of “His-(D-Ser)-Gln-Gly-Thr-Phe-Thr-Ser-Asp-Lys(PEG2-PEG2-γGlu-CO(CH2)16CO2H)-Ser-Lys-Tyr-Leu-Asp-Aib-Arg-Arg-Ala-Gln-Asp-Phe-Val-Gln-Trp-Leu-Met-Asn-Thr-Gly-Gly-Pro-Ser-Ser-Gly-Ala-Pro-Pro-Pro-Ser-NH2 (H[dS]QGTFTSDK([PEG2′-PEG2′-γGlu-C18 diacid])SKYLD[Aib]RRAQDFVQWLMNTGGPSSGAPPPS-NH2) [Compound 5]”, the “Inhibition of LX-2 cell activation marker α-SMA (in words, from Table 2)” value (“Inhibition” below) is “obviously reduce”. Besides, for the setting “0.1 μM”, the “Effect on expression of α-SMA (in words)” value was “reduce the expression of α-SMA under all concentrations” and the “Relative expression of α-SMA (α-SMA/β-actin, %)” value was 66.04%. Also, under “1 μM”, the “Relative expression of α-SMA (α-SMA/β-actin, %)” value is recorded as 67.94%. Moreover, the “Relative expression of α-SMA (α-SMA/β-actin, %)” value (5 μM) was 33.45%.

On to “His-Aib-Gln-Gly-Thr-Phe-Thr-Ser-Asp-Lys(PEG2-PEG2-γGlu-CO(CH2)14CH3)-Ser-Lys-Tyr-Leu-Asp-Glu-Arg-Arg-Ala-Gln-Asp-Phe-Val-Gln-Trp-Leu-Leu-Asp-Gly-Gly-Pro-Ser-Ser-Gly-Ala-Pro-Pro-Pro-Ser-NH2 (H[Aib]QGTFTSDK([PEG2′-PEG2′-γGlu-Palmitoyl])SKYLDERRAQDFVQWLLDGGPSSGAPPPS-NH2) [Compound 16]”, for which the “Inhibition” value is reported as “obviously reduce”. Under “0.1 μM”, the “Effect on expression of α-SMA (in words)” value is “reduce the expression of α-SMA under all concentrations” and the “Relative expression of α-SMA (α-SMA/β-actin, %)” value came out at 65.32%. The “Relative expression of α-SMA (α-SMA/β-actin, %)” value (1 μM) is 48.88%. In addition, under “5 μM”, the “Relative expression of α-SMA (α-SMA/β-actin, %)” value is 40.35%. For “His-Aib-Gln-Gly-Thr-Phe-Thr-Ser-Asp-Lys(PEG2-PEG2-γGlu-CO(CH2)16CO2H)-Ser-Lys-Tyr-Leu-Asp-Aib-Arg-Arg-Ala-Gln-Asp-Phe-Val-Gln-Trp-Leu-Leu-Asp-Gly-Gly-Pro-Ser-Ser-Gly-Ala-Pro-Pro-Pro-Ser-NH2 (H[Aib]QGTFTSDK([PEG2′-PEG2′-γGlu-C18 diacid])SKYLD[Aib]RRAQDFVQWLLDGGPSSGAPPPS-NH2) [Compound 19]”, in that order: “obviously reduce”, “reduce the expression of α-SMA under all concentrations”, 71.48%, 43.46% and 39.75%. Regarding “His-(D-Ser)-Gln-Gly-Thr-Phe-Thr-Ser-Asp-Lys(PEG2-PEG2-CO(CH2)14CH3)-Ser-Lys-Tyr-Leu-Asp-Aib-Arg-Arg-Ala-Gln-Asp-Phe-Val-Gln-Trp-Leu-Met-Asn-Thr-Gly-Gly-Pro-Ser-Ser-Gly-Ala-Pro-Pro-Pro-Ser-NH2 (H[dS]QGTFTSDK([PEG2′-PEG2′-Palmitoyl])SKYLD[Aib]RRAQDFVQWLMNTGGPSSGAPPPS-NH2) [Compound 31]”, the “Relative expression of α-SMA (α-SMA/β-actin, %)” value (1 μM) came out at 86.89%. Same read-out and setting: with “His-(D-Ser)-Gln-Gly-Thr-Phe-Thr-Ser-Asp-Lys(PEG2-PEG2-γGlu-CO(CH2)14CH3)-Ser-Lys-Tyr-Leu-Asp-Aib-Arg-Arg-Ala-Gln-Asp-Phe-Val-Gln-Trp-Leu-Met-Asn-Thr-Gly-Gly-Pro-Ser-Ser-Gly-Ala-Pro-Pro-Pro-Ser-NH2 (H[dS]QGTFTSDK([PEG2′-PEG2′-γGlu-Palmitoyl])SKYLD[Aib]RRAQDFVQWLMNTGGPSSGAPPPS-NH2) [Compound 4]” the figure was 88.50%; with “His-(D-Ser)-Gln-Gly-Thr-Phe-Thr-Ser-Asp-Tyr-Ser-Lys(PEG2-PEG2-CO(CH2)14CH3)-Lys-Leu-Asp-Aib-Arg-Arg-Ala-Gln-Asp-Phe-Val-Gln-Trp-Leu-Met-Asn-Thr-Gly-Gly-Pro-Ser-Ser-Gly-Ala-Pro-Pro-Pro-Ser-NH2 (H[dS]QGTFTSDYSK([PEG2′-PEG2′-Palmitoyl])KLD[Aib]RRAQDFVQWLMNTGGPSSGAPPPS-NH2) [Compound 9]”, 75.86%. Still for that read-out and setting: with “His-(D-Ser)-Gln-Gly-Thr-Phe-Thr-Ser-Asp-Tyr-Ser-Lys-Tyr-Leu-Asp-Glu-Lys-Ala-Ala-Lys(PEG2-PEG2-γGlu-CO(CH2)16CO2H)-Glu-Phe-Ile-Glu-Trp-Leu-Leu-Arg-Ala-NH2 (H[dS]QGTFTSDYSKYLDEKAAK([PEG2′-PEG2′-γGlu-C18 diacid])EFIEWLLRA-NH2) [Compound 18]” the figure was 75.60%.

Take “His-(D-Ser)-Gln-Gly-Thr-Phe-Thr-Ser-Asp-Tyr-Ser-Lys-Tyr-Leu-Asp-Ser-Lys(PEG2-PEG2-γGlu-CO(CH2)16CO2H)-Ala-Ala-His-Asp-Phe-Val-Glu-Trp-Leu-Leu-Asn-Gly-Gly-Pro-Ser-Ser-Gly-Ala-Pro-Pro-Pro-Ser-NH2 (H[dS]QGTFTSDYSKYLDSK([PEG2′-PEG2′-γGlu-C18 diacid])AAHDFVEWLLNGGPSSGAPPPS-NH2) [Compound 21]”: the “Relative expression of α-SMA (α-SMA/β-actin, %)” value (1 μM) was 97.66%.

On to “His-(D-Ser)-Gln-Gly-Thr-Phe-Thr-Ser-Asp-Tyr-Ser-Lys(PEG2-PEG2-γGlu-CO(CH2)16CO2H)-Lys-Leu-Asp-Aib-Arg-Arg-Ala-Gln-Asp-Phe-Val-Gln-Trp-Leu-Met-Asn-Thr-Gly-Gly-Pro-Ser-Ser-Gly-Ala-Pro-Pro-Pro-Ser-NH2 (H[dS]QGTFTSDYSK([PEG2′-PEG2′-γGlu-C18 diacid])KLD[Aib]RRAQDFVQWLMNTGGPSSGAPPPS-NH2) [Compound 20]”, for which the “Inhibition” value is listed as “obviously reduce”. Besides, under “1 μM”, the “Relative expression of α-SMA (α-SMA/β-actin, %)” value amounted to 68.39%.

Take “His-(D-Ser)-Gln-Gly-Thr-Phe-Thr-Ser-Asp-Tyr-Ser-Lys-Tyr-Leu-Asp-Ser-Lys(PEG2-PEG2-γGlu-CO(CH2)16CH3)-Ala-Ala-His-Asp-Phe-Val-Glu-Trp-Leu-Leu-Arg-Ala-NH2 (H[dS]QGTFTSDYSKYLDSK([PEG2′-PEG2′-γGlu-Stearoyl])AAHDFVEWLLRA-NH2) [Compound 25]”: where the note is “1 μM”, the “Relative expression of α-SMA (α-SMA/β-actin, %)” value is listed as 93.34%. Regarding “His-(D-Ser)-Gln-Gly-Thr-Phe-Thr-Ser-Asp-Lys(PEG2-PEG2-CO(CH2)16CH3)-Ser-Lys-Tyr-Leu-Asp-Aib-Arg-Arg-Ala-Gln-Asp-Phe-Val-Gln-Trp-Leu-Met-Asn-Thr-Gly-Gly-Pro-Ser-Ser-Gly-Ala-Pro-Pro-Pro-Ser-NH2 (H[dS]QGTFTSDK([PEG2′-PEG2′-Stearoyl])SKYLD[Aib]RRAQDFVQWLMNTGGPSSGAPPPS-NH2) [Compound 32]”, for the setting “1 μM”, the “Relative expression of α-SMA (α-SMA/β-actin, %)” value was determined as 97.14%. Still for that read-out and setting: with “His-Aib-Gln-Gly-Thr-Phe-Thr-Ser-Asp-Lys(PEG2-PEG2-γGlu-CO(CH2)16CH3)-Ser-Lys-Tyr-Leu-Asp-Aib-Arg-Arg-Ala-Gln-Asp-Phe-Val-Gln-Trp-Leu-Leu-Asp-Gly-Gly-Pro-Ser-Ser-Gly-Ala-Pro-Pro-Pro-Ser-NH2 (H[Aib]QGTFTSDK([PEG2′-PEG2′-γGlu-Stearoyl])SKYLD[Aib]RRAQDFVQWLLDGGPSSGAPPPS-NH2) [Compound 12]” the figure was 72.99%; with “His-Aib-Gln-Gly-Thr-Phe-Thr-Ser-Asp-Lys(PEG2-PEG2-γGlu-CO(CH2)16CH3)-Ser-Lys-Tyr-Leu-Asp-Glu-Arg-Arg-Ala-Gln-Asp-Phe-Val-Gln-Trp-Leu-Leu-Asp-Gly-Gly-Pro-Ser-Ser-Gly-Ala-Pro-Pro-Pro-Ser-NH2 (H[Aib]QGTFTSDK([PEG2′-PEG2′-γGlu-Stearoyl])SKYLDERRAQDFVQWLLDGGPSSGAPPPS-NH2) [Compound 14]”, 92.80%.

Consider “His-Aib-Gln-Gly-Thr-Phe-Thr-Ser-Asp-Lys(PEG2-PEG2-γGlu-CO(CH2)14CO2H)-Ser-Lys-Tyr-Leu-Asp-Aib-Arg-Arg-Ala-Gln-Asp-Phe-Val-Gln-Trp-Leu-Leu-Asp-Gly-Gly-Pro-Ser-Ser-Gly-Ala-Pro-Pro-Pro-Ser-NH2 (H[Aib]QGTFTSDK([PEG2′-PEG2′-γGlu-C16 diacid])SKYLD[Aib]RRAQDFVQWLLDGGPSSGAPPPS-NH2) [Compound 11]”, for which, for the setting “1 μM”, the “Relative expression of α-SMA (α-SMA/β-actin, %)” value was 96.78%. Same read-out and setting: with “His-(D-Ser)-Gln-Gly-Thr-Phe-Thr-Ser-Asp-Tyr-Ser-Lys-Tyr-Leu-Asp-Glu-Lys-Ala-Ala-Lys(PEG2-PEG2-γGlu-CO(CH2)16CH3)-Glu-Phe-Ile-Glu-Trp-Leu-Leu-Arg-Ala-NH2 (H[dS]QGTFTSDYSKYLDEKAAK([PEG2′-PEG2′-γGlu-Stearoyl])EFIEWLLRA-NH2) [Compound 24]” the figure was 82.42%.

In the case of “His-(D-Ser)-Gln-Gly-Thr-Phe-Thr-Ser-Asp-Tyr-Ser-Lys(PEG2-PEG2-CO(CH2)16CH3)-Lys-Leu-Asp-Aib-Arg-Arg-Ala-Gln-Asp-Phe-Val-Gln-Trp-Leu-Met-Asn-Thr-Gly-Gly-Pro-Ser-Ser-Gly-Ala-Pro-Pro-Pro-Ser-NH2 (H[dS]QGTFTSDYSK([PEG2′-PEG2′-Stearoyl])KLD[Aib]RRAQDFVQWLMNTGGPSSGAPPPS-NH2) [Compound 3]”, the “Relative expression of α-SMA (α-SMA/β-actin, %)” value (1 μM) is given as 82.25%.
